Laboratory results: patent publication US11161845B2, “Pyrrolopyridine-aniline compounds for treatment of dermal disorders” (Nflection Therapeutics, Inc., priority 2017, dated 2021)

Legend:
A375 cells = assay: A375 (BRAF) GI50 cell-based assay (Cell Titer-Glo); settings: Homo sapiens, A-375; 72 hours; read-out: Assay 2: A375 (BRAF) GI50
Protocol: Alternatively, the following procedure can be used to measure cell-based activity. Test compounds were dissolved in DMSO in 10 mM stock. Cell Titer-Glo® 2.0 Luminescent cell viability assay reagent was purchased from Promega (Madison, Wis.). A375 and HCT116 cell lines were purchased from American Type Culture Collection (Manassas, Va.). For A375 cells, cell culture media was DMEM+10% FBS. For HCT116 cells, cell culture media was McCoy's 5A+10% FBS. All media were supplemented with 100 μg/mL of penicillin, and 100 μg/mL of streptomycin. Cultures were maintained at 37° C. in a humidified atmosphere of 5% CO2 and 95% air.
Test compounds were diluted in DMSO solution with 10-dose and 3-fold dilutions in a source plate starting at 10 mM. 25 nL of each test compound was delivered from the source plate to each well of the 384-well cell culture plates (T=Final) by Echo 550. 25 μL of culture medium containing 2000 of A375 or HCT116 cells was added to each of the wells in duplicates of the cell culture plates (T=0 and T=Final). 25 μL of Cell Titer Glo 2.0 reagent was added to each well of cell culture plate (T=0). The contents were mixed on an orbital shaker for 2 min and incubated at room temperature for 15 min to stabilize luminescent signal. Luminescence was recorded by Envision 2104 Multilabel Reader (PerkinElmer, Santa Clara, Calif.). The number of viable cells in culture was determined based on quantitation of the ATP present in each culture well. The cells in cell culture plate (T=Final) were incubated with the compounds at 37° C., 5% CO2 for 72 hours. 25 μL of Cell Titer Glo 2.0 reagent was added to each well. The contents were mixed on an orbital shaker for 2 min and incubated at room temperature for 15 min to stabilize luminescent signal. Luminescence was recorded by Envision 2104 Multilabel Reader (PerkinElmer, Santa Clara, Calif.). The number of viable cells in culture was determined based on quantitation of the ATP present in each culture well. The G150 curves were plotted using the GraphPad Prism 4 program based on a sigmoidal dose-response equation Y=Bottom+(Top−Bottom)/(1+10^((Log EC50−X)*HillSlope)). All parameters in the equation were calculated by GraphPad Prism 4 program. […] Accordingly, GI50 is the value of 10^X, where X was calculated by the Curve Fitting Equation when Y=50 using Excel.

[1] = Compound levels in neck/back skin (LCMS), in vivo mouse model; design: species or system mice; settings: for concentration at 1 h / concentration at 2 h: male, C57BL/6J, mouse, neck/back skin; for concentration at 1 h: 1 h after final application; for concentration at 2 h: 2 h after final application; for Compound Levels in Neck/Back Skin: pre-dose (16 h)
Protocol: Week 4 (Experiment end): Skin and blood were collected right before the last morning dose (N=3), 1 hour (N=3 mice), and 2 hours (N=3 mice) after final application; Blood draw: Plasma compound levels (LCMS); Skin biopsy: formalin fixed for histology and p-ERK staining, flash frozen for Western analysis and skin compound levels (LCMS)
Skin biopsy and GI tract sampling: Skin was wiped down with 100% ethanol and a 1 cm^2 biopsy was obtained from compound application site each mouse at the 25 day end of experiment (except as noted below). The skin was biopsied prior to final dose from 3 mice, 1 hour after last compound application from 3 mice, 2 hours after last compound application from 3 mice. Half of the specimen were immediately flash frozen for LCMS analysis and Western Blot Analysis. Half of the specimen was fixed for 24 hours in 10% formalin and then transferred to ethanol for immunohistochemistry. Gastrointestinal tract was also formalin fixed overnight then transferred to 70% ETOH for storage.
Compound level analysis: Liquid chromatography with mass spectrometry method (LCMS) was used to detect compound levels in the skin and plasma. Tissues were preprocessed prior to LCMS as follows. Tissues were minced and incubated with collagenase and then finally homogenized using the stainless steel beads prior to LCMS analysis. Calibration curves and a QC test were run with each assay.

With Cn1c(Nc2ccc(I)cc2F)c(C(=O)NOCCO)c2cccnc21 [Example 2, 2-((2-Fluoro-4-iodophenyl)amino)—N-(2-hydroxyethoxy)-1-methyl-1H-pyrrolo[2,3-b]pyridine-3-carboxamide] the GI50 (A375 cells) was 0.063 µM, the concentration at 1 h ([1]; topical 0.1%) was 14 µg/mL and the concentration at 2 h ([1]; topical 0.1%) was 4.88 µg/mL. It also gave a concentration at 1 h ([1]; topical 0.5%) of 289 µg/mL, a concentration at 2 h ([1]; topical 0.5%) of 81.6 µg/mL and a concentration at 1 h ([1]; topical 1%) of 683 µg/mL. For the same molecule, the concentration at 2 h ([1]; topical 1%) was 378 µg/mL, the “Compound Levels in Neck/Back Skin” value ([1]; topical 0.1%) was 5.62 µg/mL and the “Compound Levels in Neck/Back Skin” value ([1]; topical 0.5%) was 49.17 µg/mL. For the same molecule, the “Compound Levels in Neck/Back Skin” value ([1]; topical 1%) was 14.73 µg/mL.
